Patent publication US20220281886A1, “NATRIURETIC PEPTIDE RECEPTOR A AGONISTS USEFUL FOR THE TREATMENT OF CARDIOMETABOLIC DISEASES, KIDNEY DISEASE AND DIABETES” (Merck Sharp & Dohme Corp., priority 2019, published 2022)

biological target: T1, hNPRA (Homo sapiens, UniProt P16066); experiment: NPRA Functional Cell Assay (cGMP HTRF); format: cell-based; settings: Human NPRA HEK JumpIn stable cells; cGMP by HTRF after 1 hour at 37° C.; 10-point dose response
T1 construct: expressed in transfected cells
T1 sequence (P16066 33-1061): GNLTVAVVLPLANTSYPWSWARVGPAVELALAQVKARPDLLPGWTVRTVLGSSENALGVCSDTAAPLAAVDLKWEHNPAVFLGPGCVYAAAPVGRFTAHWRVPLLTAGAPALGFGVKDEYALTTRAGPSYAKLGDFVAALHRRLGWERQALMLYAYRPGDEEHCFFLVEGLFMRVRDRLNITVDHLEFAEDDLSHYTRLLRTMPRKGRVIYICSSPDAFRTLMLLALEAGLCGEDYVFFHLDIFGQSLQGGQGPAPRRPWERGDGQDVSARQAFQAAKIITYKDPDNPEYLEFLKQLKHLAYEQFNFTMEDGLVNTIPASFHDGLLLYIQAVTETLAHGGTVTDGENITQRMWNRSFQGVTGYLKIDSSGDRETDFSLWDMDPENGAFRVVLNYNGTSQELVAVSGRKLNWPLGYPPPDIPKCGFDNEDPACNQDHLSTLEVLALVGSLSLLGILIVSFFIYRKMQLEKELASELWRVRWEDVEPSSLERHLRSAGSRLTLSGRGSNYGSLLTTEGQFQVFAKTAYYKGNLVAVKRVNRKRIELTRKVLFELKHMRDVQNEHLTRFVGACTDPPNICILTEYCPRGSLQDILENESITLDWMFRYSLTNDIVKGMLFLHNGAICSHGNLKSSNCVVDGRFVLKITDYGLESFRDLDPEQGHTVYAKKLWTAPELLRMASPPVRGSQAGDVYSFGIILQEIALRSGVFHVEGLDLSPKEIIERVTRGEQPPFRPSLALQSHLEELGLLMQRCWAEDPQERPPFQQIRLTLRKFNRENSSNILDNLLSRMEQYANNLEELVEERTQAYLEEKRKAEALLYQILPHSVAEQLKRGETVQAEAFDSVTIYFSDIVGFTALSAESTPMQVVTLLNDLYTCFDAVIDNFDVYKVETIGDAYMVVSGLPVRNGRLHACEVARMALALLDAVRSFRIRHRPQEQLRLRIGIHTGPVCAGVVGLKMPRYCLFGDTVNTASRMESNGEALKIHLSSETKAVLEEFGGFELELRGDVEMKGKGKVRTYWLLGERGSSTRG
From the text: Assay Buffer components HEPES and Opti-MEM® I Reduced-Serum with Glutamine (no phenol red) were from Gibco/Invitrogen (Thermo Fisher Scientific, Waltham, Mass. USA). 3-Isobutyl-1-methylxanthine (IBMX) and 4-(3-Butoxy-4-methoxybenzyl)imidazolidin-2-one (RO20) were obtained from Sigma-Aldrich (St. Louis, Mo., USA). DPBS (Dulbecco's phosphate-buffered saline) without Ca2+ and Mg2+ was purchased from GE Healthcare Bio-Sciences (Pittsburgh, Pa., USA). 384 well white Optiplates were from Perkin Elmer (Atlantic Highlands, N.J., USA). Human ANP (Atrial Natriuretic Peptide) (1-28) was purchased from Sigma-Aldrich (Catalog #A1663) and rat ANP (1-28) from Bachem (Torrance, Calif., USA) (Catalog #H2100). Human-BNP (Human-Brain Natriuretic Peptide) (1-32 AA) was purchased from American Peptide Company (Sunnyvale, Calif., USA) (product No. 14-1-90). cGMP kits were purchased from Cisbio. The assay ready frozen (ARF) Human/rat/dog NPRA HEK JumpIn Stable frozen cells (low passage number 5-11) were prepared in-house.
Test compounds were titrated in DMSO in a 10-point dose response in a separate step followed by a 100-fold dilution into the reaction. Positive response for each assay was determined using 10 nM rat-ANP peptide (rat cells) or 50 nM h-ANP peptide (human and dog cells).
Cells were thawed, washed with DPBS and resuspended in assay buffer (Opti-MEM+Glutamine, phenol red free media, 10 mM HEPES, 100 uM IBMX and 100 uM RO20) that was warmed to 37° C. Cells were then transferred to microplates via a Microplate Combi dispenser at a density of 1500, 400 and 1200 cells/well for human, rat and dog cells respectively, followed by acoustic transfer (Echo) of compound.
(§1) Compounds and cells were incubated at 37° C. with 5% CO2 for 1 hour, after which the cells were lysed and cGMP was captured using a CisBio cGMP HTRF assay kit. The TRF signal was measured with an Envision plate reader (emission set to 615 and 665 nm) after 1 hour incubation at ambient temperature. The TRF signal was converted to [cGMP] through the use of a cGMP calibration curve on each microplate. EC50's were generated from the resulting dose response curves by use of a 4 parameter logistic algorithm.
Assay Buffer components HEPES and Opti-MEM® I Reduced-Serum with Glutamine (no phenol red) were from Gibco/Invitrogen. 3-Isobutyl-1-methylxanthine (IBMX) and 4-(3-Butoxy-4-methoxybenzyl)imidazolidin-2-one (RO20) were obtained from Sigma. DPBS (Dulbecco's phosphate-buffered saline) without Ca2+ and Mg2+ was purchased from GE Healthcare Bio-Sciences (Pittsburgh, Pa., USA). 384 well white Optiplates were from Perkin Elmer (Atlantic Highlands, N.J., USA). Human ANP (1-28) was purchased from Sigma (A1663) and rat ANP (1-28) from Bachem (H2100). Human-BNP (1-32 AA) was purchased from American Peptide Company (Sunnyvale, Calif., USA) (product No. 14-1-90). cGMP kits were purchased from Cisbio (Bedford, Mass., USA). The assay ready frozen (ARF) Human/rat/dog NPRA HEK JumpIn Stable frozen cells (low passage number 5-11) were prepared in-house.
as §1, with “Envision®” for “Envision”, “(Perkin Elmer)(emission” for “(emission”
hNPRA EC50 (nM) are were determined for the compounds of Example 1 through 273 and are reported in the Experimental section of this application.

Row | EC50 [nM] | Compound
1 | 434 | CC(C)[C@]1(F)CCc2nc3c(F)cc(C(=O)N[C@H](CCN4CCCCC4CN(C)C)c4ccc(-c5ccnnc5)nc4)cc3cc2C1 (mixture of isomers) [Example 59, rac-(7S)-4,7-difluoro-7-isopropyl-N-[rac-(1R)-3-[2-[(dimethylamino)methyl]-1-piperidyl]-1-(6-pyridazin-4-yl-3-pyridyl)propyl]-6,8-dihydro-5H-acridine-2-carboxamide]
2 | 270 | CC(C)[C@]1(F)CCc2nc3c(F)cc(C(=O)N[C@H](CCN(C)C)c4ccc(-c5ccnnc5)nc4)cc3cc2C1 (racemic) [Example 37, dimethyl-[rac-(3R)-3-(6-pyridazin-4-yl-3-pyridyl)-3-[[rac-(7S)-4,7-difluoro-7-isopropyl-6,8-dihydro-5H-acridine-2-carbonyl]amino]propyl]ammonium;2,2,2-trifluoroacetate]
3 | 701 | CC1([C@H]2CCc3nc4ccc(C(=O)N[C@H](CCN5CCC(O)CC5)c5ccc(N6CCOC6=O)cc5)cc4cc3C2)CC1 [Example 1, (S)-N-((R)-3-(4-hydroxypiperidin-1-yl)-1-(4-(2-oxooxazolidin-3-yl)phenyl)propyl)-7-(1-methylcyclopropyl)-5,6,7,8-tetrahydroacridine-2-carboxamide]
4 | 103 | CC(C)[C@]1(F)CCc2nc3c(F)cc(C(=O)N[C@H](CCN4[C@H](C)CCC[C@@H]4C)c4ccc(-c5ccnnc5)nc4)cc3cc2C1 (racemic) [Example 61, rac-(7S)-4,7-difluoro-7-isopropyl-N-[rac-(1R)-1-(6-pyridazin-4-yl-3-pyridyl)-3-[rac-(2R,6S)-2,6-dimethyl-1-piperidyllpropyl]-6,8-dihydro-5H-acridine-2-carboxamide]
5 | 204 | COCC1CCN(CC[C@@H](NC(=O)c2cc(F)c3nc4c(cc3c2)C[C@](F)(C(C)C)CC4)c2ccc(-c3ccnnc3)nc2)CC1 (racemic) [Example 46, rac-(7S)-4,7-difluoro-7-isopropyl-N-[rac-(1R)-3-[4-(methoxymethyl)piperidin-1-ium-1-yl]-1-(6-pyridazin-4-yl-3-pyridyl)propyl]-6,8-dihydro-5H-acridine-2-carboxamide;2,2,2-trifluoroacetate]
6 | 338 | CC(C)[C@]1(F)CCc2nc3c(F)cc(C(=O)N[C@H](CCN4CCC[C@@H](O)C4)c4ccc(-c5ccnnc5)nc4)cc3cc2C1 (racemic) [Example 40, rac-(7S)-4,7-difluoro-7-isopropyl-N-[rac-(1R)-1-(6-pyridazin-4-yl-3-pyridyl)-3-[rac-(3R)-3-hydroxypiperidin-1-ium-1-yl]propyl]-6,8-dihydro-5H-acridine-2-carboxamide;2,2,2-trifluoroacetate]
7 | 343 | CC(C)[C@]1(F)CCc2nc3c(F)cc(C(=O)N[C@H](CCN4CCC5(CCCO5)CC4)c4ccc(-c5ccnnc5)nc4)cc3cc2C1 [Example 16, (7S)-4,7-difluoro-7-(1-methylethyl)-N-[(1R)-3-(1-oxa-8-azaspiro[4.5]dec-8-yl)-1-(6-pyridazin-4-ylpyridin-3-yl)propyl]-5,6,7,8-tetrahydroacridine-2-carboxamide]
8 | 136 | CC(C)[C@]1(F)CCc2nc3c(F)cc(C(=O)N[C@H](CCN4CCC(CO)CC4)c4ccc(-c5ccnnc5)nc4)cc3cc2C1 (racemic) [Example 45, rac-(7S)-4,7-difluoro-7-isopropyl-N-[rac-(1R)-3-[4-(hydroxymethyl)piperidin-1-ium-1-yl]-1-(6-pyridazin-4-yl-3-pyridyl)propyl]-6,8-dihydro-5H-acridine-2-carboxamide;2,2,2-trifluoroacetate]
9 | 60.3 | CC(C)[C@]1(F)CCc2nc3c(F)cc(C(=O)N[C@H](CCN4CCC5(CCO5)CC4)c4ccc(-c5ccnnc5)nc4)cc3cc2C1 (racemic) [Example 62, rac-(7S)-4,7-difluoro-7-isopropyl-N-[rac-(1R)-3-(1-oxa-7-azaspiro[3.5]nonan-7-yl)-1-(6-pyridazin-4-yl-3-pyridyl)propyl]-6,8-dihydro-5H-acridine-2-carboxamide]
